Measurements: patent publication US20260216168A1, “MODULATION OF PD-1 SIGNALING FOR TREATMENT OF DISEASES” (Wuhan University, priority 2023, published 2026)
“Also recorded” adds a separate entry of the source.

Assays:
MARCH5 [1] = biological target: T1, MARCH5 (Homo sapiens, UniProt Q9NX47); assay: MARCH5 / γc-luciferase reporter system in co-transfected HEK293 cells (screen of FDA-approved drugs); type: cell-based; details: HEK293 cells co-transfected with MARCH5 and γc-luciferase fusion protein; increase = MARCH5 inhibition
T1 construct: expressed in transfected cells; host or cells: HEK293
T1 sequence (Q9NX47 1-278): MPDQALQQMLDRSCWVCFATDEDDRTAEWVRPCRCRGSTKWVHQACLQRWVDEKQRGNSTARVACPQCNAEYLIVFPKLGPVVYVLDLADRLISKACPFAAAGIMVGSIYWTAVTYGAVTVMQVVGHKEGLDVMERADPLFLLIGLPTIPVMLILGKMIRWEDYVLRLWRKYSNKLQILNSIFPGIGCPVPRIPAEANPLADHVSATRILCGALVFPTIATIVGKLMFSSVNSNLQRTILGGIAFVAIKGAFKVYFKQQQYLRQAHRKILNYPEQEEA
Source text: Unfortunately, no pharmacological inhibitors of MARCH5 have been reported. We designed a reporter system in which HEK293 cells are co-transfected with two plasmids encoding MARCH5 and γc-luciferase fusion protein respectively. In this system, inhibition of MARCH5 by an inhibitor would result in increased luciferase activity in reporter assays.
Using this system, we screened a collection of Food and Drug Administration-approved drugs and identified 10 compounds that increased luciferase activity to more than 1.5-folds (Table 1). […] Pitavastatin is a unique lipophilic statin and potent inhibitor of HMG-CoA reductase with a strong effect on lowering plasma total cholesterol and triacylglycerol. Pitavastatin has also been reported to have pleiotropic beneficial effects such as suppression of inflammation, regulation of angiogenesis and osteogenesis, improvement of endothelial function and arterial stiffness.

γc [2] = assay: γc degradation in Jurkat cells with degradation-route inhibitors (CHX chase or PD-L1 stimulation); type: cell-based, human
Method: PD-1-expressing Jurkat cells were pre-stimulated with PHA (50 ng/ml) for 36 h and then treated with CHX (0.1 mM) for the indicated times before immunoblotting analysis with the indicated antibodies. […] PD-1-expressing Jurkat cells were stimulated with PHA (50 ng/ml) in the presence of 2 μg/ml human PD-L1-Fc fusion protein or control (human IgG1) for 36 h, and then treated with MG132 ([…]), NH4Cl (25 mM) or 3-MA (500 ng/ml) for 12 h before immunoblotting analysis with the indicated antibodies. • (D) PD-1 ligation induces polyubiquitination of γc. PD-1-expressing Jurkat cells were stimulated with PHA (50 ng/ml) for the indicated times before co-immunoprecipitation and immunoblotting analysis with the indicated antibodies. • (E) MARCH5 promotes degradation of γc in a dose-dependent manner. HEK293 cells were transfected with the indicated plasmids for 24 h before immunoblot analysis with the indicated antibodies. • (F) Association of γc with MARCH5. […]
Cells were lysed in 1 ml of NP-40 lysis buffer (20 mM Tris-HCl, 150 mM NaCl, 1 mM EDTA, 10% Nonidet P-40, […] Triton X-100, […] aprotinin, 10 μg/ml leupeptin, and 1 mM phenylmethylsulfonyl fluoride, PMSF). […] The immunoprecipitants were analyzed by immunoblotting with the ubiquitin antibody.

MARCH5 [3] = biological target: T1, MARCH5; assay: MARCH5-mediated degradation of γc in HEK293 cells; type: cell-based
Method: HEK293 cells were transfected by standard calcium phosphate precipitation. The empty control plasmid was added to ensure that each transfection receives the same amount of total DNA.
Cells were lysed in 1 ml of NP-40 lysis buffer (20 mM Tris-HCl, 150 mM NaCl, 1 mM EDTA, 10% Nonidet P-40, […] Triton X-100, […] aprotinin, 10 μg/ml leupeptin, and 1 mM phenylmethylsulfonyl fluoride, PMSF). For each immunoprecipitation reaction, a 0.4 ml aliquot of lysate was incubated with 0.5-2 μg of the indicated antibody or control IgG and 35 μL of a 1:1 slurry of Protein-G Sepharose (GE Healthcare) at 4° C. for 3 h. The Sepharose beads were washed three times with 1 ml of lysis buffer containing 500 mM NaCl. The precipitates were fractionated by SDS-PAGE, and immunoblotting analysis was performed with the indicated antibodies. For ubiquitination assays, the immunoprecipitants were re-extracted in NP-40 lysis buffer containing 1% SDS and denatured by heating for 10 min. The supernatants were diluted with regular lysis buffer until the concentration of SDS was decreased to 0.1%, following by re-immunoprecipitation with the indicated antibodies. The immunoprecipitants were analyzed by immunoblotting with the ubiquitin antibody.

γc [4] = assay: Effects of other statin drugs on the γc level; type: cell-based; details: other HMG-CoA reductase inhibitor statins
Source text: Statin drugs, such as lovastatin, simvastatin, fluvastatin sodium and rosuvastatin calcium, are thought to target HMG-CoA reductase. Therefore, we examined the effects of these statin drugs on the γc level.

tumor = assay: PC or rosuvastatin calcium alone or with IL-2 on tumor growth in mice; type: in vivo, mouse
Source text: We further tested the anti-tumor effects of PC in mouse MC38 colorectal carcinoma and B16F10 melanoma models.

Row | Molecule | Rel. Luc. Act (MARCH5 [1]) | other results
1 | O=C(/C=C/c1cccc(S(=O)(=O)Nc2ccccc2)c1)NO [Belinostat] | 1.85 | 
2 | Nc1ccccc1NC(=O)c1ccc(CNC(=O)OCc2cccnc2)cc1 [Entinostat] | 1.60 | 
3 | NC(=O)N1CCC(CC(=O)N2CCC([C@H]3c4ncc(Br)cc4CCc4cc(Cl)cc(Br)c43)CC2)CC1 [Lonafarnib] | 2.88 | 
4 | Nc1ccccc1NC(=O)c1ccc(CNc2nccc(-c3cccnc3)n2)cc1 [Mocetinostat] | 1.83 | 
5 | Cl.N [NH4Cl, ammonium chloride] |  | γc degradation after termination of protein synthesis by CHX (γc [2]; Jurkat cells, MG132 100 μM, NH4Cl 25 mM or 3-MA 500 ng/ml 4 h, then CHX 0.1 mM 2 h): markedly inhibited; also recorded: inhibits γc degradation; PD-L1-induced degradation of γc (γc [2]; PD-1-expressing Jurkat cells, PHA + PD-L1-Fc 36 h, then inhibitor 12 h): also inhibited; also recorded: inhibits PD-1 ligation-induced degradation of γc; MARCH5-mediated degradation of γc (MARCH5 [3]): inhibited MARCH5-mediated degradation of γc
6 | CCCCc1nc2cc(/C=C/C(=O)NO)ccc2n1CCN(CC)CC [Pracinostat] | 1.75 | 
7 | O=P(O)(O)C(O)(Cc1cccnc1)P(=O)(O)O [Risedronate Sodium] | 1.60 | 
8 | Nc1cc(F)ccc1NC(=O)c1ccc(CNC(=O)/C=C/c2cccnc2)cc1 [Tucidinostat] | 1.86 | 
9 | O=C(CCCCCCC(=O)Nc1ccccc1)NO [Vorinostat] | 1.58 | 
10 | CC[C@H](C)C(=O)O[C@H]1C[C@@H](C)C=C2C=C[C@H](C)[C@H](CC[C@@H]3C[C@@H](O)CC(=O)O3)[C@H]21 [lovastatin] |  | γc level (γc [4]): up-regulated the level of γc
11 | CC(C)c1nc(N(C)S(C)(=O)=O)nc(-c2ccc(F)cc2)c1/C=C/[C@@H](O)C[C@@H](O)CC(=O)[O-].CC(C)c1nc(N(C)S(C)(=O)=O)nc(-c2ccc(F)cc2)c1/C=C/[C@@H](O)C[C@@H](O)CC(=O)[O-].[Ca+2] [rosuvastatin calcium] |  | synergistic effect with IL-2 on tumor suppression (tumor; combined with IL-2, mice): no such synergism was observed; tumor growth (tumor; statin administered alone, mice): suppressed tumor growth; γc level (γc [4]): up-regulated the level of γc
12 | Chidamide | 1.59 | 
